Reference: patent publication US20180153826A1, “MATERIALS AND METHODS FOR THE TREATMENT OF CYSTIC FIBROSIS” (UNIVERSITY OF FLORIDA RESEARCH FOUNDATION, INC., priority 2015, published 2018)

Test system: cAMP-dependent HCO3^− secretion
Experiment: Cyclic nucleotide (cAMP)-dependent HCO3^− secretion, lumen Cl^−/SCFA-free
Design: species or system rat
Experimental: Stripped mucosal sheets were mounted into Ussing chambers (window area=0.3-0.5 cm^2, Physiologic Instruments, San Diego, Calif.). The mucosal side of tissue was bathed with an unbuffered HCO3^--free Cl^- Ringer solution (see Table 2 for detailed composition) circulated by a gas lift with 100% O2 while the serosal side was bathed with buffered Cl^- Ringer solution (pH 7.4) that contained 25 mM HCO3^- and gassed with 5% CO2/95% O2. Each side contained 3-5 ml of solution and the temperature of the solution was adjusted to and maintained at 37° C. by heated water-jacketed reservoirs. Experiments were performed under short-circuit conditions (Voltage-Current Clamp, VCC MC8; Physiologic Instruments, San Diego, Calif.) to maintain the transepithelial potentials at 0 mV, except for brief interruption at 20-second intervals for recording of open-circuit potential (VT, mV). Two types of approaches were used in the measurement of colonic HCO3^- secretion, namely, measurement of lumen pH or pH stat titration of net alkalinization by colonic mucosa. […] Radiometer Analytical, Villeurbanne, France). The amount of the acid delivered per unit time per surface area was used to quantitate HCO3^- secretion by the mucosa. Measurements were recorded continuously and mean values for consecutive 5 or 10 min periods were averaged. […] The short-circuit current (Isc) was measured in microamperes (μA) and converted into μEq/hr/cm^2. Tissue resistance (R, Ω cm^2) was calculated from Ohm's law. Colon segments were prepared and treated as in the secretagogue-induced HCO3^- secretion experiments except that they were bathed luminally with HCO3^--free Ringer solution that contained no isobutyrate and no Cl^-. Cyclic nucleotide-dependent HCO3^- secretion was calculated as […] (the difference between JHCO3 after minus JHCO3 before the addition of forskolin). When inhibitor was used, it was added at 30 min before […] or forskolin.

COc1cccc([C@@H](C)NCCCc2ccccc2Cl)c1.Cl [R568, 2-Chloro-N-[(1R)-1-(3-methoxyphenyl)ethyl]-benzenepropanamine hydrochloride]
effect on FSK-induced HCO3^− secretion (10 μM serosa after forskolin, lumen Cl^−/SCFA-free): almost completely reversed
Isc response in the absence of serosal HCO3^− (no serosal HCO3^− (data not shown)): failed to stimulate or to inhibit
effect on forskolin-stimulated Isc (subsequent addition after forskolin, lumen Cl^−-free): inhibited
